{"source": "patent US20170130052A1", "about": "“A POLYMER BASED ON A MALTODEXTRIN FOR ENCAPSULATING ORGANIC COMPOUNDS” (ROQUETTE ITALIA S.P.A., priority 2014, published 2017)", "assay": "Solubility of ketoprofen/dexamethasone owing to encapsulation in the polymers", "conditions": "water"}
{"smiles": "C[C@@H]1C[C@H]2[C@@H]3CCC4=CC(=O)C=C[C@]4(C)[C@@]3(F)[C@@H](O)C[C@]2(C)[C@@]1(O)C(=O)CO", "note": "[Dexamethasone]", "values": [{"measurement": "solubility", "value": 90, "unit": "µg/mL"}]}
